These results are taken from US20110262442A1, “COMPOSITIONS FOR TREATING CNS DISORDERS” (Adenios, Inc., priority 2009, published 2011).

The test system of one test is Z310 cells. In words: Jurkat cell migration across Z310-seeded Transwell (choroid plexus). Type of test: cell-based, murine. To be noted: Z310 cells on Transwell, migrated cells counted after 24 hours, n=1. How it is done:
The choroid plexus (“CP”) controls lymphocyte migration into the CNS. The CP expresses the A1 and A2A adenosine receptors. EAE is prevented in mice when A2A adenosine receptor activity is blocked. EAE is enhanced when the A1 adenosine receptor is missing. It was hypothesized that A2A adenosine receptor activation promotes lymphocyte migration across the CP. Z310 cells are a murine choroid plexus cell line. To test the hypothesis, Transwell membranes were seeded with Z310 cells and allowed to grow to confluencey. 2×10^6 Jurkat cells were added to the upper chamber with or with out NECA (n=1, general AR agonist), CCPA (n=1, AAR agonist), CGS 21860 (n=1, A2AAR agonist), or DMSO vehicle (n=1). After 24 hours, migrated cells in the lower chamber were counted. Values are relative to the number of cells that migrate through non-Z310 seeded transwells and the results are shown in FIG. 12.

Test [1] deals with hCMEC/D3 cells. In words: cAMP levels in human brain endothelial cells (cAMP Screen kit). To be noted: 15 minutes treatment, various concentrations (CCPA: at high levels). Type of test: cell-based. How it is done:
Adenosine receptor activation regulates cAMP levels in cells. In order to determine the sensitivity of human brain endothelial cells to adenosine receptor induced cAMP regulation, human brain endothelial cells were cultured with adenosine receptor agonists at various concentrations, followed by cAMP level analysis, as shown in FIG. 13.
HCMECD3 cells were grown to confluencey on 24 well plates. As adenosine receptor (“AR”) stimulation is known to influence cAMP levels, cells were treated with or without various concentrations of NECA (general AR agonist), CCPA (A1 AR agonist), CGS 21860 (A2A AR agonist), DMSO vehicle, or Forksolin (induces cAMP). After 15 minutes, lysis buffer was added and the cells were frozen at −80 C to stop the reaction. Duplicate samples were used for each condition. cAMP levels were assayed using a cAMP Screen kit (Applied Biosystems, Foster City, Calif.).
(In general: Changes in cAMP serve as a functional read-out for many G protein-coupled receptors.)

Test [2] relates to blood brain barrier. Briefly: Fluorimetric analysis of labeled dextrans in brain after i.v. drug administration. The class given is in vivo, mice. The conditions noted are these: wild type mice, 10,000 Da FITC-dextran; for dextran entry into the CNS compared to NECA administration: 3 h after i.v. administration; for dextran entry into the CNS compared to vehicle treatment: 3 h after i.v. co-administration. How it is done:
C57BL/6 mice from Jackson Laboratories were used as wild types. All mice used were aged 7-9 weeks and weighed between 20-25 g. All rats were aged 8 weeks and weighed 200-220 g. Mice and rats were bred and housed under specific pathogen-free conditions.
The adenosine receptor agonists NECA, CCPA and CGS 21860 were purchased from Tocris. Each was dissolved in DMSO then diluted in PBS to the desired concentration; in most cases final DMSO concentrations were <0.5% (vol/vol). For vehicle controls, DMSO was diluted in PBS to the same concentration. Dehydrated dextrans labeled with either FITC or Texas Red were purchased from Invitrogen and re-suspended in PBS to 10 mg ml^−1. All experiments involving dextran injection used 0.5 mg dextran in PBS. In experiments where drug and dextran were injected concomitantly, 0.5 mg of dextran was mixed with the drug to the desired concentration in a final volume of 200 μl. All injections were retro-orbital i.v. with a 27-gauge needle. In the SCH 58261 experiment, groups were administered vehicle or SCH 58261 for 4 d. Vehicle/drug and dextrans were injected on day 5 and tissues were collected 3 h after vehicle/drug administration. In Lexiscan experiments, Lexiscan was administered i.v. with 3 injections, 5 min apart and tissues were collected at 15 min unless otherwise indicated.
In dose-response experiments and experiments with the A1 AR and A2A AR knock-out mice, drugs and dextrans were injected concomitantly. After 3 h, the mice were anesthetized with ketamine/xylazine and subjected to a nose cone containing isoflurane. They were perfused with 25-50 ml ice-cold PBS through the left ventricle of the heart then decapitated. Their brains were removed, weighed and frozen for later analysis.
Ice-cold 50 mM Tris-Cl (pH 7.6) was added to frozen brains (100 μl per 100 mg brain) and were to thawed on ice. They were homogenized manually with ˜45 strokes of a dounce homogenizer in plastic 1.5 ml microfuge tubes then spun at 16.1 g in a microfuge for 30 min at room temperature (rt). The supernatants were transferred to new tubes and an equal volume absolute methanol was added. The samples were spun again at 16.1 g for 30 min at rt. Supernatant (200 μl) was transferred to a Corning costar 96 well black polystyrene assay plate (clear bottom). Additionally, a series of standards containing 0.001-10 μg ml^−1 dextran in 50% Tris-Cl/50% absolute methanol (vol/vol) was added to each plate. Absolute concentrations of dextrans were derived from these standard curves. Fluorimetric analysis was performed on a BioTek Synergy 4. FITC-dextran was detected at 488/519 (excitation/emission) and Texas Red-dextran was detected at 592/618.

Test [3] relates to hCMEC/D3 cells. In words: Jurkat cell migration across hCMEC/D3-seeded Transwell (in vitro BBB). Type of test: cell-based, human. To be noted: hCMEC/D3 on Transwell, migrated cells counted after 24 hours. The text has this:
The blood brain barrier (“BBB”) is comprised of endothelial cells. During late stages of EAE, lymphocytes are known to cross the BBB. In order to determine if adenosine receptor stimulation of brain endothelial cells could promote lymphocyte migration through the BBB, an in vitro BBB was established. The human brain endothelial cell line hCMEC/D3 (Weksler et al., “Blood-brain Barrier-specific Properties of a Human Adult Brain Endothelial Cell Line,” […] (2005); Poller et al., “The Human Brain Endothelial Cell Line hCMEC/D3 as a Human Blood-brain Barrier Model for Drug Transport Studies,” J. Neurochem. 107(5):1358-1368 (2008), which are hereby incorporated by reference in their entirety) was obtained, which has been previously described as having BBB properties.
hCMEC/D3 cells were seeded onto Transwell and allowed to grow to confluencey. 2×10^6 Jurkat cells were added to the upper chamber with or without NECA (general adenosine receptor [AR] agonist), CCPA (A1 AR agonist), CGS 21860 (A2A AR agonist), or DMSO vehicle. After 24 hours, migrated cells in the lower chamber were counted. Values are relative to the number of cells that migrate through non-HCMECD3 seeded transwells.

Test [4] has as its system blood brain barrier. In words: FITC-Dextran extravasation through the brain endothelium (brain sections). To be noted: 10,000 MW FITC Dextran IP, 30 minutes. Type of test: in vivo, mice. How it is done:
In order to examine the effects of caffeine, a general adenosine receptor antagonist, on blood brain barrier permeability, mice were fed caffeine for several days and then injected with FITC Dextran, commonly used to assess endothelial permeability.
More particularly, mice were fed 0.6 g/l caffeine (Sigma, St. Louis, Mo.) in water or regular water ad lib for five days. Mice were injected IP with FITC Dextran (10,000 MW, Molecular Probes, Eugene, Oreg.) and after 30 minutes mice were perfused with ice cold PBS via the left ventricle. Brains were removed and snap frozen in OCT (Tissue Tek, Torrance, Calif.) and stored at −80° C. until sectioning. Tissue sections (5 μm) were stained with hematoxylin for light microscopy and with DAPI for a fluorescent counterstain.

The test system of test [5] is Experimental Autoimmune Encephalomyelitis (EAE). In words: MOG-induced EAE induction and daily scoring. Type of test: in vivo, mice. The text has this: Cd73^−/− mice have been previously described (Thompson et al., “Crucial Role for Ecto-5′-Nucleotidase (CD73) in Vascular Leakage During Hypoxia,” J. Exp. Med. 200:1395-1405 (2004), which is hereby incorporated by reference in its entirety) and have been backcrossed to C57BL/6 for 14 generations. Cd73 mice have no overt susceptibility to infection and appear normal based on the size and cellular composition of their lymphoid organs and their T and B cell responses in in vivo and in vitro assays (Thompson et al., “Crucial Role for Ecto-5′-Nucleotidase (CD73) in Vascular Leakage During Hypoxia,” J. Exp. Med. 200:1395-1405 (2004), which is hereby incorporated by reference in its entirety). C57BL/6 and tcrα^−/− mice on the C57BL/6 background were purchased from The Jackson Laboratories. Mice were bred and housed under specific pathogen-free conditions at Cornell University or the University of Turku. For adenosine receptor blockade experiments, mice were given drinking water supplemented with 0.6 g/L of caffeine (Sigma) or 2 mg/kg SCH58261 (1 mg/kg s.c. and 1 mg/kg i.p.) in DMSO (45% vol. in PBS) or 45% DMSO alone starting 1 day before EAE induction and continuing throughout the experiment. All procedures performed on mice were approved by the relevant animal review committee.
EAE was induced by subjecting mice to the myelin oligodendrocyte glycoprotein (“MOG”) EAE-inducing regimen as described in Swanborg, “Experimental Autoimmune Encephalomyelitis in Rodents as a Model for Human Demyelinating Disease,” Clin. Immunol. Immunopathol. 77:4-13 (1995) and Bynoe et al., “Epicutaneous Immunization with Autoantigenic Peptides Induces T Suppressor Cells that Prevent Experimental Allergic Encephalomyelitis,” Immunity 19:317-328 (2003), which are hereby incorporated by reference in their entirety. Briefly, a 1:1 emulsion of MOG35-55 peptide (3 mg/ml in PBS) (Invitrogen) and complete Freund's adjuvant (CFA, Sigma) was injected subcutaneously (50 μl) into each flank. Pertussis toxin (PTX, 20 ng) (Biological Laboratories Inc.) was given intravenously (200 μl in PBS) at the time of immunization and again 2 days later. Mice were scored daily for EAE based on disease symptom severity; 0=no disease, 0.5-1=weak/limp tail, 2=limp tail and partial hind limb paralysis, 3=total hind limb paralysis, 4=both hind limb and fore limb paralysis, 5=death. Mice with a score of 4 were euthanized.

A further test has as its system brain endothelial cells. Briefly: Actin stress fiber induction in brain endothelial cells. Type of test: cell-based. How it is done: To test this brain endothelial cells were treated with either CCPA (to agonize A1 adenosine receptors) or […] (to agonize the A2A adenosine receptor).

Consider `CCNC(=O)[C@H]1O[C@@H](n2cnc3c(N)nc(NCCc4ccc(CCC(=O)O)cc4)nc32)[C@H](O)[C@@H]1O` [CGS 21680, 4-[2-[[6-Amino-9-(N-ethyl-b-D-ribofuranuronamidosyl)-9H-purin-2-yl]amino]ethyl]benzenepropanoic acid], for which the “lymphocyte (Jurkat) migration across the CP” value with Z310 cells is on record as “promoted lymphocyte migration across the CP”. For the same molecule, the cAMP levels result in the test on hCMEC/D3 cells [1] is reported as “slightly increased cAMP levels”. In the test with blood brain barrier [2], the “dextran entry into the CNS compared to NECA administration” value is given as “significantly lower than that observed after NECA administration” and the “dextran entry into the CNS compared to vehicle treatment” value was “increased dextran entry into the CNS”. The “lymphocyte (Jurkat) migration across the in vitro BBB” value in the test on hCMEC/D3 cells [3] was “promoted lymphocyte migration across the in vitro BBB when used at a lower concentration”.

Take `Cn1c(=O)c2c(ncn2C)n(C)c1=O` [caffeine]: the “FITC-Dextran extravasation across the blood brain barrier” value is “less FITC-Dextran extravasation” in the test on blood brain barrier [4] (CD73−/− mice fed 0.6 g/l caffeine for five days, compared with wild type mice) and “more FITC-dextran extravasation” with blood brain barrier [4] (wild type mice (caffeine feeding experiment), compared with CD73−/− mice). The EAE development entry in test [5] (cd73−/− mice, caffeine 0.6 g/L in drinking water) is listed as “did not develop EAE”; in test [5] (wild type mice, caffeine 0.6 g/L in drinking water from 1 day prior to and throughout EAE experiment), “dramatically protected against EAE development”.

In the case of `OC[C@H]1O[C@@H](n2cnc3c(NC4CCCC4)nc(Cl)nc32)[C@H](O)[C@@H]1O` [CCPA, 2-chloro-N^6-cyclopentyladenosine], in the test on Z310 cells, the “lymphocyte (Jurkat) migration across the CP” value was “induced lymphocyte migration at high levels”. The cAMP levels result in the test on hCMEC/D3 cells [1] is “increased cAMP levels”. Further, the “actin stress fibers compared to vehicle alone” value in the test on brain endothelial cells is “induction of actin stress fibers was observed”. Also, in the test with blood brain barrier [2], the “dextran entry into the CNS compared to NECA administration” value was “significantly lower than that observed after NECA administration” and the “dextran entry into the CNS compared to vehicle treatment” value is “increased dextran entry into the CNS”. For the same molecule, in the test with hCMEC/D3 cells [3], the “lymphocyte (Jurkat) migration across the in vitro BBB” value was “induced lymphocyte migration at high levels”.

B1: PEG-ADA: PEGylated adenosine deaminase (protein, UniProt P56658 2-363, looked up)
Adenosine deaminase: AQTPAFNKPKVELHVHLDGAIKPETILYYGRKRGIALPADTPEELQNIIGMDKPLSLPEFLAKFDYYMPAIAGCREAVKRIAYEFVEMKAKDGVVYVEVRYSPHLLANSKVEPIPWNQAEGDLTPDEVVSLVNQGLQEGERDFGVKVRSILCCMRHQPSWSSEVVELCKKYREQTVVAIDLAGDETIEGSSLFPGHVKAYAEAVKSGVHRTVHAGEVGSANVVKEAVDTLKTERLGHGYHTLEDATLYNRLRQENMHFEVCPWSSYLTGAWKPDTEHPVVRFKNDQVNYSLNTDDPLIFKSTLDTDYQMTKNEMGFTEEEFKRLNINAAKSSFLPEDEKKELLDLLYKAYGMPSPASAEQCL
modifications: PEGylated
notes: PEGylated adenosine deaminase
For B1, the “development of EAE (mean EAE score)” value in test [5] (wild-type mice, 15 units/kg body weight i.p. every 4 days, vs PBS vehicle) is reported as “inhibits the development of EAE”.
